Reference: ChEMBL document CHEMBL1201862, “PubChem BioAssay data set” (2004)
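Values below derive from 48-hour exposures of cells grown in 96-well plates, with endpoints linearly interpolated between the two concentrations bracketing the appropriate inhibition level. GI50 = concentration required for 50% inhibition of growth.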 Active and inactive are the calls of the source. No stated cut-off is given here; in the data, active = GI50 up to about 1.1 µM and inactive = higher.

What was measured:
Test in all cases: inhibition of tumour cell growth, NCI panel, 48 h
SK-MEL-2 = test system: SK-MEL-2
HCT-15 = test system: HCT-15
HCT-116 = test system: HCT-116
HOP-92 = test system: HOP-92
K562 = test system: K562
ACHN = test system: ACHN
A498 = test system: A498
NCI-H460 = test system: NCI-H460
HL-60 = test system: HL-60
NCI-H23 = test system: NCI-H23
SK-MEL-28 = test system: SK-MEL-28
SNB-19 = test system: SNB-19
786-0 = test system: 786-0
CAKI-1 = test system: CAKI-1
XF498 = test system: XF498
SK-OV-3 = test system: SK-OV-3
LOX IMVI = test system: LOX IMVI
COLO 205 = test system: COLO 205
HCC 2998 = test system: HCC 2998
UO-31 = test system: UO-31
SNB-78 = test system: SNB-78
SW-620 = test system: SW-620
HOP-18 = test system: HOP-18
M19-MEL = test system: M19-MEL
UACC-257 = test system: UACC-257
KM12 = test system: KM12
M14 = test system: M14
CCRF-CEM = test system: CCRF-CEM
HT-29 = test system: HT-29
RPMI-8226 = test system: RPMI-8226
DMS-114 = test system: DMS-114
SK-MEL-5 = test system: SK-MEL-5
OVCAR-4 = test system: OVCAR-4
UACC-62 = test system: UACC-62
DMS-273 = test system: DMS-273
LXFL 529 = test system: LXFL 529
OVCAR-3 = test system: OVCAR-3
DLD-1 = test system: DLD-1
A549 = test system: A549
SN12C = test system: SN12C
SF-268 = test system: SF-268
SNB-75 = test system: SNB-75
KM-20L2 = test system: KM-20L2
NCI-H522 = test system: NCI-H522
SR = test system: SR
TK-10 = test system: TK-10
SF-539 = test system: SF-539
RXF 393 = test system: RXF 393
EKVX = test system: EKVX
Malme-3M = test system: Malme-3M
SF-295 = test system: SF-295
OVCAR-8 = test system: OVCAR-8
U-251 = test system: U-251
NCI-H226 = test system: NCI-H226
OVCAR-5 = test system: OVCAR-5
IGROV-1 = test system: IGROV-1
HOP-62 = test system: HOP-62
MDA-MB-231 = test system: MDA-MB-231
T47D = test system: T47D
BT-549 = test system: BT-549
MDA-N = test system: MDA-N
Hs-578T = test system: Hs-578T
MCF7 = test system: MCF7
MOLT-4 = test system: MOLT-4
MDA-MB-435 = test system: MDA-MB-435
DU-145 = test system: DU-145
NCI/ADR-RES = test system: NCI/ADR-RES
PC-3 = test system: PC-3

## O=C(NCc1ccccc1)c1cc2cc(O)c(O)cc2cn1
SK-MEL-2
  GI50: 46.3 µM (inactive)
HCT-15
  GI50: 20 µM
HCT-116
  GI50: 30.3 µM (inactive)
HOP-92
  GI50: 39.1 µM (inactive)
K562
  GI50: 12.1 µM (inactive)
ACHN
  GI50: 12.5 µM (inactive)
A498
  GI50: 73.3 µM (inactive)
NCI-H460
  GI50: 9.79 µM (inactive)
HL-60
  GI50: 13.5 µM (inactive)
NCI-H23
  GI50: 14 µM (inactive)
SK-MEL-28
  GI50: 35.7 µM (inactive)
SNB-19
  GI50: 46.9 µM (inactive)
786-0
  GI50: 22.9 µM (inactive)
CAKI-1
  GI50: 35.6 µM (inactive)
XF498
  GI50: 28.4 µM (inactive)
SK-OV-3
  GI50: 40.8 µM (inactive)
LOX IMVI
  GI50: 14.4 µM (inactive)
COLO 205
  GI50: 34.8 µM (inactive)
HCC 2998
  GI50: 32.7 µM (inactive)
UO-31
  GI50: 18.1 µM (inactive)
SNB-78
  GI50: 50.5 µM (inactive)
SW-620
  GI50: 42.6 µM (inactive)
HOP-18
  GI50: 13.8 µM (inactive)
M19-MEL
  GI50: 20.1 µM (inactive)
UACC-257
  GI50: 26.9 µM (inactive)
KM12
  GI50: 31.9 µM (inactive)
M14
  GI50: 16.6 µM (inactive)
CCRF-CEM
  GI50: 6.4 µM (inactive)
HT-29
  GI50: 26.7 µM (inactive)
RPMI-8226
  GI50: 24.6 µM (inactive)
DMS-114
  GI50: 4.48 µM (inactive)
SK-MEL-5
  GI50: 22.8 µM (inactive)
OVCAR-4
  GI50: 25.5 µM (inactive)
UACC-62
  GI50: 16.6 µM (inactive)
DMS-273
  GI50: 4.7 µM (inactive)
LXFL 529
  GI50: 16 µM (inactive)
OVCAR-3
  GI50: 34.1 µM (inactive)
DLD-1
  GI50: 36.7 µM (inactive)
A549
  GI50: 29 µM (inactive)
SN12C
  GI50: 31.2 µM (inactive)
SF-268
  GI50: 14.4 µM (inactive)
SNB-75
  GI50: 23.8 µM (inactive)
KM-20L2
  GI50: 29.4 µM (inactive)
NCI-H522
  GI50: 4.69 µM (inactive)
SR
  GI50: 13.8 µM (inactive)
TK-10
  GI50: 39.9 µM (inactive)
SF-539
  GI50: 29 µM (inactive)
RXF 393
  GI50: 21 µM (inactive)
EKVX
  GI50: 41.3 µM (inactive)
Malme-3M
  GI50: 34.6 µM (inactive)
SF-295
  GI50: 24.3 µM (inactive)
OVCAR-8
  GI50: 21.2 µM (inactive)
U-251
  GI50: 17.5 µM (inactive)
NCI-H226
  GI50: 26.9 µM (inactive)
OVCAR-5
  GI50: 33.5 µM (inactive)
IGROV-1
  GI50: 30.3 µM (inactive)
HOP-62
  GI50: 20 µM (inactive)

## CC(CCC=O)CCOCc1ccccc1 (stereo not given)
SK-MEL-2
  GI50: > 100 µM (inactive)
HCT-15
  GI50: > 100 µM
HCT-116
  GI50: > 95.9 µM (inactive)
HOP-92
  GI50: > 100 µM (inactive)
K562
  GI50: > 63.5 µM (inactive)
ACHN
  GI50: > 100 µM (inactive)
A498
  GI50: > 100 µM (inactive)
NCI-H460
  GI50: > 100 µM (inactive)
MDA-MB-231
  GI50: 56.6 µM (inactive)
HL-60
  GI50: 18.9 µM (inactive)
NCI-H23
  GI50: 67.3 µM (inactive)
T47D
  GI50: > 100 µM (inactive)
SK-MEL-28
  GI50: > 100 µM (inactive)
SNB-19
  GI50: > 100 µM (inactive)
786-0
  GI50: > 100 µM (inactive)
CAKI-1
  GI50: 36.8 µM (inactive)
XF498
  GI50: > 100 µM (inactive)
SK-OV-3
  GI50: > 100 µM (inactive)
LOX IMVI
  GI50: 49.8 µM (inactive)
COLO 205
  GI50: > 100 µM (inactive)
HCC 2998
  GI50: > 100 µM (inactive)
BT-549
  GI50: > 100 µM (inactive)
UO-31
  GI50: > 100 µM (inactive)
MDA-N
  GI50: > 100 µM (inactive)
SNB-78
  GI50: > 100 µM (inactive)
SW-620
  GI50: > 80.7 µM (inactive)
HOP-18
  GI50: > 100 µM (inactive)
M19-MEL
  GI50: > 73.8 µM (inactive)
UACC-257
  GI50: 36.5 µM (inactive)
Hs-578T
  GI50: > 100 µM (inactive)
KM12
  GI50: > 57.1 µM (inactive)
M14
  GI50: > 100 µM (inactive)
CCRF-CEM
  GI50: > 48.5 µM (inactive)
HT-29
  GI50: > 100 µM (inactive)
MCF7
  GI50: 2.8 µM (inactive)
RPMI-8226
  GI50: 53.7 µM (inactive)
MOLT-4
  GI50: > 40.7 µM (inactive)
DMS-114
  GI50: 61.2 µM (inactive)
SK-MEL-5
  GI50: 37.4 µM (inactive)
OVCAR-4
  GI50: > 77.8 µM (inactive)
UACC-62
  GI50: > 100 µM (inactive)
DMS-273
  GI50: > 95.9 µM (inactive)
LXFL 529
  GI50: > 100 µM (inactive)
OVCAR-3
  GI50: > 88.5 µM (inactive)
DLD-1
  GI50: > 100 µM (inactive)
MDA-MB-435
  GI50: > 100 µM (inactive)
DU-145
  GI50: > 100 µM (inactive)
A549
  GI50: > 87.5 µM (inactive)
SN12C
  GI50: > 100 µM (inactive)
SF-268
  GI50: > 100 µM (inactive)
SNB-75
  GI50: > 100 µM (inactive)
KM-20L2
  GI50: > 100 µM (inactive)
NCI-H522
  GI50: 34.8 µM (inactive)
SR
  GI50: > 54.5 µM (inactive)
TK-10
  GI50: > 42 µM (inactive)
SF-539
  GI50: > 100 µM (inactive)
RXF 393
  GI50: > 100 µM (inactive)
EKVX
  GI50: > 100 µM (inactive)
Malme-3M
  GI50: > 100 µM (inactive)
SF-295
  GI50: > 100 µM (inactive)
OVCAR-8
  GI50: 98.4 µM (inactive)
U-251
  GI50: > 100 µM (inactive)
NCI-H226
  GI50: > 100 µM (inactive)
NCI/ADR-RES
  GI50: > 100 µM (inactive)
PC-3
  GI50: > 100 µM (inactive)
OVCAR-5
  GI50: > 89.7 µM (inactive)
IGROV-1
  GI50: > 100 µM (inactive)
HOP-62
  GI50: > 100 µM (inactive)
